# Data reported in publication PMC8942775, “Lipidated Calcitonin Gene-Related Peptide (CGRP) Peptide Antagonists Retain CGRP Receptor Activity and Attenuate CGRP Action In Vivo” (Frontiers in Pharmacology, 2022).
# Ends that are not written are not given here. Peptide text beside a SMILES is read from it. * marks the point of attachment. Ethyl(2-palmitoyloxy) = CCCCCCCCCCCCCCCC(=O)OCC*
# Columns and labels:
# [1] = test system: endogenous CGRP action (capsaicin-induced dermal vasodilation); assay: Capsaicin-induced dermal vasodilation (CIDV), laser Doppler imaging of the mouse ear; assay type: in vivo, C57BL/6J mice; details: for effect on CIDV response (antagonist screening): male and female C57BL/6J mice, single s.c. dose 10 min before anesthesia, αCGRP8-37 960 nmol/kg, olcegepant 1150 nmol/kg, K24C-palmitate 320 nmol/kg, capsaicin 60 μg/ear, flux AUC over 15 min vs saline, four to five mice per group; for effect on CIDV response at lower (mass-matched) dose: s.c., flux AUC over 15 min vs matched vehicle group, compared to V8C-palmitate and K24C-palmitate, 4-7 per group
# Method: (§1) Experimental design is outlined in Figure 1. Male and female C57BL/6J mice were recruited at 10–12 weeks of age at 20–30 g bodyweight. Animals were randomly allocated to each treatment group. Antagonists were diluted from respective stock solutions into 37°C pre-warmed sterile 0.9% saline containing 0.1% BSA and DMSO at a final amount of 3.2%. The vehicle was 0.9% saline supplemented with 0.1% BSA and 3.2% DMSO. Antagonist or vehicle was administered subcutaneously at a volume of 10 ml/kg. The anesthetic was: ketamine at 10 mg/ml and xylazine at 1 mg/ml, dissolved in sterile 0.9% saline. This was administered via the intraperitoneal route at 10 ml/kg and the anesthetized mouse placed onto a heating pad to maintain constant body temperature. The head was positioned for the dorsal region of both ears to be aligned to the LDI2-HIR Laser Doppler Imager (Moor Instruments) above it. The imager scanned 40 cm from the ear at a scan speed of 4 ms/pixel, with a scan area of approximately 11.0 cm × 4.1 cm and 256 × 45 pixels resolution. This provided a scan rate of approximately 1 scan/min for both ears. Both ears were simultaneously scanned for 3 min to generate the baseline blood flow prior to capsaicin-challenge (Figure 1). Guided by earlier research ([Grant et al., 2002]), capsaicin (Sigma-Aldrich, St. Louis, MO, United States) dissolved in absolute ethanol was applied topically to the ear (60 μg/ear; 10 μl on both dorsal and ventral side). On the contralateral ear, ethanol was applied as a negative control. Both ears were then immediately scanned with the Laser Doppler imager for a continuous 15-min period to capture changes in blood flow (Figure 1).
# Mice were administered subcutaneously with vehicle or antagonist (Figure 1A). Ten minutes later mice were anesthetized and placed on a heating pad. Ten minutes after anesthesia induction, measurement of dermal blood-flow commenced. Either a single dose of antagonist as specified in the figures was used or a dose-ranging study was conducted. For the dose-ranging study, either hαCGRP8-37 or hαCGRP8-37 V8C-palmitate (V8C-palmitate) at a dose of 320, 960 or 3,200 nmol/kg was used. Doses were selected based on existing literature and our own pilot trials to characterize optimal (and maximal/minimal) effective dose within the bounds of solubility limits ([Saxen et al., 1994]; [Grant et al., 2002]; [Gohin et al., 2015]; [Aubdool et al., 2016]).
# Mice were administered subcutaneously with vehicle or either hαCGRP8-37 (960 nmol/kg) or V8C-palmitate (960 nmol/kg) at 10, 20, 30 or 60 min prior to anesthesia and baseline read (Figure 1A). Ten minutes after anesthesia induction, measurement of dermal blood-flow began. To study the time of onset of antagonist activity, a shorter period between treatment administration and capsaicin challenge was utilized (T0) (Figure 1B). Here, mice were anesthetized and placed on the heating pad prior to peptide administration. Immediately after peptide administration, measurement of dermal blood-flow began.
# For laser doppler imaging (LDI) scans, mean flux values of the whole scanned ear region for both ethanol (control) and capsaicin-treated ears at each time point (per minute) were analyzed using the MoorLDI Review 6.1 software. Mean flux values were normalized to the mean flux values averaged from the three continuous baseline scans and a time course is generated. Area under the curve (AUC) of the % flux mean after capsaicin application (t ≥ 0) was measured for each animal, grouped and compared between different ears or treatment arms. […] Time courses and time points were compared using repeated measures two-way ANOVA with Bonferonni’s multiple comparisons test.
# [2] = Solubility limit of the dosing solution; assay type: physicochemical; details: dosing vehicle 0.9% saline with 0.1% BSA and 3.2% DMSO; limited the maximum dose to 320 nmol/kg (10 ml/kg)
# Method: as §1, with “Guided by earlier research ([Grant et al., 2002]), capsaicin (Sigma-Aldrich, St. Louis, MO, United States) dissolved in absolute ethanol was applied topically to the ear (60 μg/ear; 10 μl on both dorsal and ventral side). On the contralateral ear, ethanol was applied as a negative control. Both ears were then immediately scanned with the Laser Doppler imager for a continuous 15-min period to capture changes in blood flow (Figure 1).” left out
# [3] = molecular target: T1, human CGRP receptor (CLR:RAMP1) (Homo sapiens, UniProt O60894+Q16602); assay: cAMP assay, antagonism of αCGRP at the human CGRP receptor in transfected Cos-7 cells; assay type: cell-based; details: for pA2, CGRPr: non-lipidated analogues, single antagonist concentration 30 nM, agonist αCGRP, mean ± SEM of three independent experiments, SEM; for fold less potent compared to αCGRP8-37 at the CGRP receptor: from pA2 values at 30 nM
# T1 construct: HA; myc; expressed in transfected cells; host or cells: Cos-7
# Method: (§2) Data were analyzed using GraphPad Prism versions 7–9 (GraphPad Software Inc., San Diego, CA, Unite States). Concentration-response cAMP data were fitted via non-linear regression using a four-parameter logistic equation. An extra sum-of-squares F-test was conducted to determine whether the Hill slope was equal to one. […] The maximal (Emax) and minimal (Emin) responses were not constrained between independent experiments to obtain the pEC50 value.
# (§3) The Schild slope was also constrained to one.
# [4] = molecular target: T2, human AMY1 receptor (CTR/RAMP1) (Homo sapiens, UniProt O60894+P30988); assay: cAMP assay, antagonism of αCGRP at the human AMY1 receptor in transfected Cos-7 cells; assay type: cell-based; details: for pA2, AMY1r: non-lipidated analogues, single antagonist concentration 30 nM, agonist αCGRP, mean ± SEM of three independent experiments, SEM
# T2 construct: HA; myc; expressed in transfected cells; host or cells: Cos-7
# Method: as §2, §3
# T1 sequence (Q16602 23-461): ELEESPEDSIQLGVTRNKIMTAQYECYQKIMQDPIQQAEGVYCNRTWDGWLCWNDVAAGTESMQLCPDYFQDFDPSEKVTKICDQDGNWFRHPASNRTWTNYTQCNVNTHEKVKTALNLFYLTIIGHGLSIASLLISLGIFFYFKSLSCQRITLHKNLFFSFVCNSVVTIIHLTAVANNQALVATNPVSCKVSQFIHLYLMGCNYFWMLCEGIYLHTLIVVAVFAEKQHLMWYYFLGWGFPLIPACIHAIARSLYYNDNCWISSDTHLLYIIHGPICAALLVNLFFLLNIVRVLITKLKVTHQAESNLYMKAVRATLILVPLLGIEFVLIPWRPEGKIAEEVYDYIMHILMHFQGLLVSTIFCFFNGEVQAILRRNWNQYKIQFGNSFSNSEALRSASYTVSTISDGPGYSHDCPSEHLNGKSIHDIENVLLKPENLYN
# T1 sequence (O60894 27-148): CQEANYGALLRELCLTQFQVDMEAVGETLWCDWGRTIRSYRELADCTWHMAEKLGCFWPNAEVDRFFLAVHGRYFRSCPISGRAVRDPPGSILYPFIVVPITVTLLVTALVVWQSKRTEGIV
# T2 sequence (P30988 25-474): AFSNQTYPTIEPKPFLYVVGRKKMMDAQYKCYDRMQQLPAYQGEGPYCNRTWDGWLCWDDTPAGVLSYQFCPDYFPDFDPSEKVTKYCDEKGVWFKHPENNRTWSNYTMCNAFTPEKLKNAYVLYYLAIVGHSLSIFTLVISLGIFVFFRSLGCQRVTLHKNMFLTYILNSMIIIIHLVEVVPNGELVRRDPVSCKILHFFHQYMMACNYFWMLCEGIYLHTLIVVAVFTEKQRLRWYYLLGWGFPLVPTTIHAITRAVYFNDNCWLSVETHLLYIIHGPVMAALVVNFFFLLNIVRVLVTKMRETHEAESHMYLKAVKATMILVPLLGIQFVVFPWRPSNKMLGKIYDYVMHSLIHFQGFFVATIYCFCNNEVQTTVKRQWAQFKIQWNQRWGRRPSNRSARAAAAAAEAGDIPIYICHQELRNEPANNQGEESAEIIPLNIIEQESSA
# T2 sequence (O60894 27-148): as the sequence (O60894 27-148) above
molecule,measurement,setting,value
CCCCCCCCCCCCCCCC(=O)OCCSC[C@H](NC(=O)[C@@H](NC(=O)[C@@H](NC(=O)CNC(=O)CNC(=O)[C@H](CO)NC(=O)[C@H](CCCNC(=N)N)NC(=O)[C@H](CO)NC(=O)[C@H](CC(C)C)NC(=O)[C@H](CC(C)C)NC(=O)CNC(=O)[C@H](C)NC(=O)[C@H](CC(C)C)NC(=O)[C@H](CCCNC(=N)N)NC(=O)[C@H](Cc1c[nH]cn1)NC(=O)[C@@H](NC(=O)[C@@H](N)C(C)C)[C@@H](C)O)C(C)C)C(C)C)C(=O)N[C@@H](CC(N)=O)C(=O)N[C@@H](CC(N)=O)C(=O)N[C@@H](Cc1ccccc1)C(=O)N[C@H](C(=O)N1CCC[C@H]1C(=O)N[C@H](C(=O)N[C@@H](CC(N)=O)C(=O)N[C@H](C(=O)NCC(=O)N[C@@H](CO)C(=O)N[C@@H](CCCCN)C(=O)N[C@@H](C)C(=O)N[C@@H](Cc1ccccc1)C(N)=O)C(C)C)[C@@H](C)O)C(C)C [K24C-palmitate] (H-VTHRLAGLLSRSGGVVC(Ethyl(2-palmitoyloxy))NNFVPTNVGSKAF-NH2; N-terminus assumed),effect on CIDV response (antagonist screening),[1],attenuated the CIDV response
same,solubility,[2],limited solubility at high concentrations
CCCCCCCCCCCCCCCC(=O)OCCSC[C@H](NC(=O)[C@H](CO)NC(=O)CNC(=O)[C@@H](NC(=O)[C@H](CC(N)=O)NC(=O)[C@@H](NC(=O)[C@@H]1CCCN1C(=O)[C@@H](NC(=O)[C@H](Cc1ccccc1)NC(=O)[C@H](CC(N)=O)NC(=O)[C@H](CC(N)=O)NC(=O)[C@H](CCCCN)NC(=O)[C@@H](NC(=O)[C@@H](NC(=O)CNC(=O)CNC(=O)[C@H](CO)NC(=O)[C@H](CCCNC(=N)N)NC(=O)[C@H](CO)NC(=O)[C@H](CC(C)C)NC(=O)[C@H](CC(C)C)NC(=O)CNC(=O)[C@H](C)NC(=O)[C@H](CC(C)C)NC(=O)[C@H](CCCNC(=N)N)NC(=O)[C@H](Cc1c[nH]cn1)NC(=O)[C@@H](NC(=O)[C@@H](N)C(C)C)[C@@H](C)O)C(C)C)C(C)C)C(C)C)[C@@H](C)O)C(C)C)C(=O)N[C@@H](C)C(=O)N[C@@H](Cc1ccccc1)C(N)=O [K35C-palmitate],fold reduction of antagonist activity compared to hαCGRP8-37 at CGRP receptor,[3]; from pKB values,~70 fold
same,fold reduction of antagonist activity compared to hαCGRP8-37 at AMY1 receptor,[4]; from pKB values,~12 fold
CCCCCCCCCCCCCCCC(=O)OCCSC[C@H](N)C(=O)N[C@H](C(=O)N[C@@H](Cc1c[nH]cn1)C(=O)N[C@@H](CCCNC(=N)N)C(=O)N[C@@H](CC(C)C)C(=O)N[C@@H](C)C(=O)NCC(=O)N[C@@H](CC(C)C)C(=O)N[C@@H](CC(C)C)C(=O)N[C@@H](CO)C(=O)N[C@@H](CCCNC(=N)N)C(=O)N[C@@H](CO)C(=O)NCC(=O)NCC(=O)N[C@H](C(=O)N[C@H](C(=O)N[C@@H](CCCCN)C(=O)N[C@@H](CC(N)=O)C(=O)N[C@@H](CC(N)=O)C(=O)N[C@@H](Cc1ccccc1)C(=O)N[C@H](C(=O)N1CCC[C@H]1C(=O)N[C@H](C(=O)N[C@@H](CC(N)=O)C(=O)N[C@H](C(=O)NCC(=O)N[C@@H](CO)C(=O)N[C@@H](CCCCN)C(=O)N[C@@H](C)C(=O)N[C@@H](Cc1ccccc1)C(N)=O)C(C)C)[C@@H](C)O)C(C)C)C(C)C)C(C)C)[C@@H](C)O [V8C-palmitate],effect on CIDV response (antagonist screening),[1],attenuated the CIDV response
same,"effect on CIDV, dose ranging, 320 nmol/kg","[1]; male mice, 320 nmol/kg s.c. 10 min before anesthesia, six mice per group",did not have a significant antagonist effect
same,"effect on CIDV, dose ranging, 960 nmol/kg","[1]; male mice, 960 nmol/kg s.c. 10 min before anesthesia, six mice per group",significantly reduced CIDV
same,"effect on CIDV, dose-duration study, T-10","[1]; male mice, 960 nmol/kg s.c. 10 min prior to anesthesia and capsaicin application, six mice per group",attenuation evident only at T-10
same,"effect on CIDV, dose-duration study, T-60","[1]; male mice, 960 nmol/kg s.c. 60 min prior to anesthesia and capsaicin application, six mice per group",disappearing by the T-60 timepoint
same,"effect on CIDV, dose ranging, 3,200 nmol/kg","[1]; male mice, 3,200 nmol/kg s.c. 10 min before anesthesia, six mice per group",significant antagonist effect
"NCCCC[C@H](NC(=O)[C@@H](Cc1cc(Br)c(O)c(Br)c1)NC(=O)N1CCC(N2Cc3ccccc3NC2=O)CC1)C(=O)N1CCN(c2ccncc2)CC1 [olcegepant, reference compound]",effect on CIDV response (antagonist screening),[1],attenuated the CIDV response
CCCCCCCCCCCCCCCC(=O)OCCSC[C@H](N)C(=O)N[C@H](C(=O)N[C@H](C(=O)N[C@@H](Cc1c[nH]cn1)C(=O)N[C@@H](CCCNC(=N)N)C(=O)N[C@@H](CC(C)C)C(=O)N[C@@H](C)C(=O)NCC(=O)N[C@@H](CC(C)C)C(=O)N[C@@H](CC(C)C)C(=O)N[C@@H](CO)C(=O)N[C@@H](CCCNC(=N)N)C(=O)N[C@@H](CO)C(=O)NCC(=O)NCC(=O)N[C@H](C(=O)N[C@H](C(=O)N[C@@H](CCCCN)C(=O)N[C@@H](CC(N)=O)C(=O)N[C@@H](CC(N)=O)C(=O)N[C@@H](Cc1ccccc1)C(=O)N[C@H](C(=O)N1CCC[C@H]1C(=O)N[C@H](C(=O)N[C@@H](CC(N)=O)C(=O)N[C@H](C(=O)NCC(=O)N[C@@H](CO)C(=O)N[C@@H](CCCCN)C(=O)N[C@@H](C)C(=O)N[C@@H](Cc1ccccc1)C(N)=O)C(C)C)[C@@H](C)O)C(C)C)C(C)C)C(C)C)[C@@H](C)O)C(C)C [αCGRP7-37-palmitate],effect on CIDV response at lower (mass-matched) dose,[1]; male mice,weaker antagonist activities
"K24C αCGRP8-37: cysteine-substituted αCGRP8-37 analogue at Lys-24 (VTHRLAGLLSRSGGVVCNNFVPTNVGSKAF-NH2; ends and bridges not checked; UniProt P06881 90-119, looked up, variant K24C)","pA2, CGRPr",[3],8.25 ± 0.11
same,"pA2, AMY1r",[4],7.06 ± 0.15
K35C αCGRP8-37: cysteine-substituted αCGRP8-37 analogue at Lys-35,"pA2, CGRPr",[3],8.85 ± 0.31
same,"pA2, AMY1r",[4],7.04 ± 0.18
"V8C αCGRP8-37: cysteine-substituted αCGRP8-37 analogue at Val-8 (CTHRLAGLLSRSGGVVKNNFVPTNVGSKAF-NH2; ends and bridges not checked; UniProt P06881 90-119, looked up, variant V8C)",fold less potent compared to αCGRP8-37 at the CGRP receptor,[3],25 fold
same,"pA2, CGRPr",[3],7.23 ± 0.07
same,"pA2, AMY1r",[4],6.41 ± 0.15
"αCGRP7-37: truncated peptide antagonist which retains the native Cys-7 residue (CVTHRLAGLLSRSGGVVKNNFVPTNVGSKAF; ends and bridges not checked; UniProt P06881 89-119, looked up, fragment)",fold less potent compared to αCGRP8-37 at the CGRP receptor,[3],4.5 fold
same,"pA2, CGRPr",[3],7.98 ± 0.09
same,"pA2, AMY1r",[4],7.10 ± 0.17
"βCGRP8-37: human βCGRP fragment 8-37, synthesized in house",effect on CIDV response at lower (mass-matched) dose,[1]; male mice,weaker antagonist activities
